One test concerns the target T1, human recombinant CB2 (Homo sapiens, UniProt P34972).
T1 construct: purchased Perkin-Elmer; host or cells: HEK293
In words: CB2R radioligand binding on membranes from HEK293 cells over-expressing CB2. The protocol:
(§1) Terpenoid compounds of formula (I), (II) or (III) above were evaluated for their ability to activate Cannabinoid Receptor 1 (CB1R) and Cannabinoid Receptor 2 (CB2R). Their ClogP values were also measured.
CB2R experiments were performed using membranes from HEK293 cells over-expressing human recombinant CB2, as described by the manufacturer (Perkin-Elmer), and using [3H]CP-55,495 as the radioligand.
(§2) Data of active compounds are expressed in Ki (mM) and are means ±SEM of n=3 determinations.
(§3) The values that are stated for each of the compounds is an EC50 value. This is defined as the molar concentration of an agonist, which produces 50% of the maximum possible response for that agonist. The values documented are in micromolar units.

Another test has as its target T2, human recombinant CB1 (Homo sapiens, UniProt P21554).
T2 construct: purchased Perkin-Elmer; host or cells: HEK293
In words: CB1R radioligand binding on membranes from HEK293 cells over-expressing CB1. As for the experimental part:
as §1
CB1R experiments were performed using membranes from HEK293 cells over-expressing human recombinant CB1, as described by the manufacturer (Perkin-Elmer) and using [3H]CP-55,490 as the radioligand.
as §2, §3

The mark [1] stands for this setting: HEK293 membranes, [3H]CP-55,495 radioligand, means of n=3, dash = greater than 25 micromolar, read-out: CB2R Activity.
Setting [2] is: HEK293 membranes, [3H]CP-55,490 radioligand, means of n=3, read-out: CB1R Activity.

pEC50: −log10 of the molar value. Read-outs that look alike come from different tables or passages of the source.

T1 sequence (P34972 whole entry): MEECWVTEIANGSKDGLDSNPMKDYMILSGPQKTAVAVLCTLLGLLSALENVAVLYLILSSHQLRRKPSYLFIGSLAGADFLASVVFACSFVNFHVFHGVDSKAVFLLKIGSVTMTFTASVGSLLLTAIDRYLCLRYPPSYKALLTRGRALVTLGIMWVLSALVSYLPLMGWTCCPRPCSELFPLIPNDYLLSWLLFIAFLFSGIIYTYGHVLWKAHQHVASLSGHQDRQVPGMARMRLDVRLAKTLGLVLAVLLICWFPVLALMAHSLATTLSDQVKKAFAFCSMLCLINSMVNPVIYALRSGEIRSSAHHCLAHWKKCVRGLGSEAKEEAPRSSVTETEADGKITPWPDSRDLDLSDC
T2 sequence (P21554 whole entry): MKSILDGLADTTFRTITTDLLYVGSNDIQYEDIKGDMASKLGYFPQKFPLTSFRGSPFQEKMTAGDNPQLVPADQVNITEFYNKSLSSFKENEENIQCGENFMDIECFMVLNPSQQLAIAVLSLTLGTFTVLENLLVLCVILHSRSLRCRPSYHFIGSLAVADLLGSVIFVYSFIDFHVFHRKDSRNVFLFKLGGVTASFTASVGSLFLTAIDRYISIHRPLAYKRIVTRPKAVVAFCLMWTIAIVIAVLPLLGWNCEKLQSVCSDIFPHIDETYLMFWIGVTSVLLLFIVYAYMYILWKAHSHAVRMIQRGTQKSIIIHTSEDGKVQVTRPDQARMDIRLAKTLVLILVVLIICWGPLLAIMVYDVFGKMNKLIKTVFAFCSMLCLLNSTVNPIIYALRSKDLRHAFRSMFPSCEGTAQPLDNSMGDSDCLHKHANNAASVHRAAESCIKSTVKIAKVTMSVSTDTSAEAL

On to `C=C(C)C1Cc2c(cc(O)c3c2OC2C(O)Oc4cc(OC)c(OC)cc4C2C3=O)O1` (centres unmarked) [Example 1, 6-hydroxysumatrol], for which the results for the pEC50 on human recombinant CB2 (setting [1]) and on human recombinant CB1 (setting [2]) were less than 4.60 and 4.77, respectively.
`COc1cc(C2Oc3ccc(C4CC(=O)c5c(O)cc(O)cc5O4)cc3OC2CO)ccc1O` (centres unmarked) [Example 3, silandrin]: the pEC50 at human recombinant CB2 was less than 4.60; on human recombinant CB1, 4.66.
As to isophaseollin [Example 2], the “activation of Cannabinoid Receptor 2 (CB2R), in words” value at human recombinant CB2 was “can activate”. Besides, the figures for the pEC50 at human recombinant CB2 (setting [1]) and at human recombinant CB1 (setting [2]) were 4.65 and 4.81, respectively. Besides, on human recombinant CB1, the “activation of Cannabinoid Receptor 1 (CB1R), in words” value is “can activate”.

The values are drawn from patent US20080255082A1, “Hair and/or Scalp Care Compositions Incorporating Terpenoid Compounds” (priority 2005, published 2008).
